Data: ChEMBL document CHEMBL5715260, “Selectivity Literature for EUbOPEN Chemogenomic Library” (2024)
Where a SMILES comes first, the peptide text is derived from it. [ ]: non-standard residue; d: D form. The star is where a group is joined. Lys(Me,2-norbornyl) = CN(CCCC[C@H](N)C(=O)O)C1CC2CCC1C2; Benzoyl(4-tBu) = CC(C)(C)c1ccc(C(=O)*)cc1; Cbz = O=C(OCc1ccccc1)*; CH2F = FC*

Assays:
Design in all cases: recommended concentration 1 uM
[1] = target: T1, Histone-lysine N-methyltransferase 2A (Homo sapiens, UniProt Q03164); assay: (§1) Selectivity interaction (Enzymatic assay) EUB0002166aAD MLL
T1 sequence (Q03164 1-2718 limits assumed): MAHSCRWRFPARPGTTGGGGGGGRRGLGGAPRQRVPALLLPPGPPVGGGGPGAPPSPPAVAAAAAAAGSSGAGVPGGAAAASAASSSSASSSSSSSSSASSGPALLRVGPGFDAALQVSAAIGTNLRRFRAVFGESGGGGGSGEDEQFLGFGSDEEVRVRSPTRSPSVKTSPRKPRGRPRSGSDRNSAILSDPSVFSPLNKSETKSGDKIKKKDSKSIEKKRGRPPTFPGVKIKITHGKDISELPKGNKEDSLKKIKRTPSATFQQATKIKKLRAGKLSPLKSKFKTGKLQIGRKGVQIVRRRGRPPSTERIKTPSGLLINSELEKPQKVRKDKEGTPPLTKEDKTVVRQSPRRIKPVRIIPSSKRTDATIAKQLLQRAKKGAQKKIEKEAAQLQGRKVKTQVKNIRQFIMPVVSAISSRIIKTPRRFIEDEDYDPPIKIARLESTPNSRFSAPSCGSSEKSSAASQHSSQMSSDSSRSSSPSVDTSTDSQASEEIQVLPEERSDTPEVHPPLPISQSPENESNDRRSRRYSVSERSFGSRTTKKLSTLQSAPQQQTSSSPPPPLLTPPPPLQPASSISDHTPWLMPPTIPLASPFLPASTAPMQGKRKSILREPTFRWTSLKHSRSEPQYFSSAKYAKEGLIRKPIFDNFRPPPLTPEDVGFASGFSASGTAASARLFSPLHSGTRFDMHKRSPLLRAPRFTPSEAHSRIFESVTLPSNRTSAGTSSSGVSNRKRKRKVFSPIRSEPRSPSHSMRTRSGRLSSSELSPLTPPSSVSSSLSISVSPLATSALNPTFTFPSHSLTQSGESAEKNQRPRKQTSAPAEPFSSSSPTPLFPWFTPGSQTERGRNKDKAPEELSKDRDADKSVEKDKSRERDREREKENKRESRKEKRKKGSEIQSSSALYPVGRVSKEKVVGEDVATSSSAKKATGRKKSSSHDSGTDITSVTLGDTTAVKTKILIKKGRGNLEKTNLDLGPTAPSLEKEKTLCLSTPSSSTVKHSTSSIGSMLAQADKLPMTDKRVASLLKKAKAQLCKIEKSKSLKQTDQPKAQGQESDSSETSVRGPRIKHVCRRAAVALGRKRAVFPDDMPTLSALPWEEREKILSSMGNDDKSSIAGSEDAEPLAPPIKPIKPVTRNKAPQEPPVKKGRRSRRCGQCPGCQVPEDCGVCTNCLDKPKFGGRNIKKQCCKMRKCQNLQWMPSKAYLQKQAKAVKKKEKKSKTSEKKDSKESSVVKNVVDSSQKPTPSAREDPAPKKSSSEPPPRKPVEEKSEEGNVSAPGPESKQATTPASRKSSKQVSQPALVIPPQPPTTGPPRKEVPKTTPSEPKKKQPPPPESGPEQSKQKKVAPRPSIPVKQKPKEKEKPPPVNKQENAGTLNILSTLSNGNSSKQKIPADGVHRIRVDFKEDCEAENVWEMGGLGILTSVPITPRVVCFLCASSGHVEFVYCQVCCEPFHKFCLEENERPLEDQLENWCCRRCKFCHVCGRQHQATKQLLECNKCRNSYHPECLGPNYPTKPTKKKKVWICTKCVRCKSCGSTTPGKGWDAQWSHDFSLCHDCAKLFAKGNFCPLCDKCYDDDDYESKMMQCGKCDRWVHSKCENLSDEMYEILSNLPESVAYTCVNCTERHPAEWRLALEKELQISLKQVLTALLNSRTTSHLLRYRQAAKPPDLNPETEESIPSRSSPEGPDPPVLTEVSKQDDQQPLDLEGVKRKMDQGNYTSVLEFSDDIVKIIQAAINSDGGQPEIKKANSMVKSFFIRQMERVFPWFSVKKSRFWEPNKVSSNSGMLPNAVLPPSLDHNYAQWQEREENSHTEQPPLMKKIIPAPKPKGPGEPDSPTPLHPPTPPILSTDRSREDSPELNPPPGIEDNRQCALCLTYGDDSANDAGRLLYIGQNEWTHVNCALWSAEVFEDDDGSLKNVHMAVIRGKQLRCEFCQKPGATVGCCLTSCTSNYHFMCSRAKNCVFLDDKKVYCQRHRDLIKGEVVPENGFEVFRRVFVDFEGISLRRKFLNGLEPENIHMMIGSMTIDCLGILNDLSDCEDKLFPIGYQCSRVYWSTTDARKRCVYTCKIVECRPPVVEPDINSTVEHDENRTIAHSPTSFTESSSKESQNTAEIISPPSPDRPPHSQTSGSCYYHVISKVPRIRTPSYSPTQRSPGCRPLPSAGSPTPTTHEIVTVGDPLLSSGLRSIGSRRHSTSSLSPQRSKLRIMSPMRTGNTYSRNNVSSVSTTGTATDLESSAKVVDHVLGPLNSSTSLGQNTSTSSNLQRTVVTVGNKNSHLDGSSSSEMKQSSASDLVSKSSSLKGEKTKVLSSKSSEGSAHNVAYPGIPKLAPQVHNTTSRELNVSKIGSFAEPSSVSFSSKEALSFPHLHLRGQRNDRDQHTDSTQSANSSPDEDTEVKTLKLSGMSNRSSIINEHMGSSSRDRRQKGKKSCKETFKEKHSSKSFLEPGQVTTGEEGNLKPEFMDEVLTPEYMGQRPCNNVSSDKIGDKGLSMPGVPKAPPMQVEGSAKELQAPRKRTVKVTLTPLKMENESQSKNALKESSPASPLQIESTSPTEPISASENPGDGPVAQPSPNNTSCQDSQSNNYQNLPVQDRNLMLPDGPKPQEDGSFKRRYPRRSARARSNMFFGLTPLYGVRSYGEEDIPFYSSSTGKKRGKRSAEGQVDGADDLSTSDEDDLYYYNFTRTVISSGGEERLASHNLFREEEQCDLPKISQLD
T1 sequence (Q03164 2719-3969 limits assumed): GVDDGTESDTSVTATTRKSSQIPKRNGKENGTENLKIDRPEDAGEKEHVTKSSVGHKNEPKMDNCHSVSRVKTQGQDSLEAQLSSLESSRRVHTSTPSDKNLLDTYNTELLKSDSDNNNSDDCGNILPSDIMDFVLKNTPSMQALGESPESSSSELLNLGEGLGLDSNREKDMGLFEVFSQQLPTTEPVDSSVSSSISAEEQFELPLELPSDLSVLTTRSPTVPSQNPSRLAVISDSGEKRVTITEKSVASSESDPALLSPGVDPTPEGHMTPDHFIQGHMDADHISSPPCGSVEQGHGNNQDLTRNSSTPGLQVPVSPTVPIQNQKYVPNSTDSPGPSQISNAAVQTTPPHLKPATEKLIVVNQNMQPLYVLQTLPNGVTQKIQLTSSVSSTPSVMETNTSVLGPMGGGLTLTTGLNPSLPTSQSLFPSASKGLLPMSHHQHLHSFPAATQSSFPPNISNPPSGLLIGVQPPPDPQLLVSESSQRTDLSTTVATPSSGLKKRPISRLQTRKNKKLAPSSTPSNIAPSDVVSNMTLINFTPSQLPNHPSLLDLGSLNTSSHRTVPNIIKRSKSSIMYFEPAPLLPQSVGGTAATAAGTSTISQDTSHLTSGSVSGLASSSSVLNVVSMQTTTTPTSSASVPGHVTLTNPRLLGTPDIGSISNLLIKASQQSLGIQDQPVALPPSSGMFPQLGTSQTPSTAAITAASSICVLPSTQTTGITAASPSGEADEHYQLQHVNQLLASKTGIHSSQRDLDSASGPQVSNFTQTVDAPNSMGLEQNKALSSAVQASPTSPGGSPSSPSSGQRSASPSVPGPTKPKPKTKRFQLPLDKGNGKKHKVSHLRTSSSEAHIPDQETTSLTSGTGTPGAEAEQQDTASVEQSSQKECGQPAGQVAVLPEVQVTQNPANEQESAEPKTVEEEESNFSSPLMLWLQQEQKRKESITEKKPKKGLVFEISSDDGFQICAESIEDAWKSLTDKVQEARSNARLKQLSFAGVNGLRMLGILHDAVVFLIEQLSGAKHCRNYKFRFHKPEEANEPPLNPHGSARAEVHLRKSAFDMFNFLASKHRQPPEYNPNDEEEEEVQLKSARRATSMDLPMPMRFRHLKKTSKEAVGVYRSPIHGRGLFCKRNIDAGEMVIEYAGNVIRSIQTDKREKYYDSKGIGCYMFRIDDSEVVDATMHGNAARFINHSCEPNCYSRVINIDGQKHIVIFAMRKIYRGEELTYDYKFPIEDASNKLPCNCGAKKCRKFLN

[2] = target: T1, Histone-lysine N-methyltransferase 2A; assay: as §1; remark: listed apart in the source
[3] = target: Poly [ADP-ribose] polymerase tankyrase-1 (Homo sapiens, UniProt O95271); assay: Selectivity interaction (Enzymatic assay) EUB0002249a TNKS1
[4] = target: Poly [ADP-ribose] polymerase 1 (Homo sapiens, UniProt P09874); assay: Selectivity interaction (Enzymatic assay) EUB0002249a PARP1
[5] = target: T2, Caspase-9 (Homo sapiens, UniProt P55211); assay: Selectivity interaction (Enzymatic assay) EUB0002177aAD CASP9
T2 sequence (P55211 whole entry): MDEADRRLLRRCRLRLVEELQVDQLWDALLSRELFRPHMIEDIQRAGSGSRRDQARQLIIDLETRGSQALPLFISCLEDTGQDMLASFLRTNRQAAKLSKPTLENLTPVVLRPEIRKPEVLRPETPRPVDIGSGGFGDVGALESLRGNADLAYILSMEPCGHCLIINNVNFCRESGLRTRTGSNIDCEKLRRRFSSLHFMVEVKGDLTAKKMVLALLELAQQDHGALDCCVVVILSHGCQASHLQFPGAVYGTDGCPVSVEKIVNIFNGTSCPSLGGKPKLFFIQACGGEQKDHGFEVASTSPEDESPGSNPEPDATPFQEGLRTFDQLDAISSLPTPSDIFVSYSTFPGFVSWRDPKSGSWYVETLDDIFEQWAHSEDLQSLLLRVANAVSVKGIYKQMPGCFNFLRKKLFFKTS

[6] = target: T3, Caspase-7 (Homo sapiens, UniProt P55210); assay: Selectivity interaction (Eurofins (enzymatic assay)) EUB0002202a CASP7
T3 sequence (P55210 whole entry): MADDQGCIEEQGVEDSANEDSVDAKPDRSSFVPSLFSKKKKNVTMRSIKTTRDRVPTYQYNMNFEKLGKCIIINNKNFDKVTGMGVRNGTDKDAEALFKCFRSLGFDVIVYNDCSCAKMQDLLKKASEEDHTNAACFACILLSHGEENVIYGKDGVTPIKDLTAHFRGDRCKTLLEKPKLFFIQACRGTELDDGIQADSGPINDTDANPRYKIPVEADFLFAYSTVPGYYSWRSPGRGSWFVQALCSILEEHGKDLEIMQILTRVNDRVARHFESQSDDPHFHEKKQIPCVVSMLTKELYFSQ

[7] = target: T2, Caspase-9; assay: Selectivity interaction (Eurofins (enzymatic assay)) EUB0002202a CASP9
[8] = target: Caspase-8 (Homo sapiens, UniProt Q14790); assay: Selectivity interaction (Eurofins (enzymatic assay)) EUB0002202a CASP8
[9] = target: Muscarinic acetylcholine receptor M1 (Homo sapiens, UniProt P11229); assay: Selectivity interaction (US National Institute of Mental Health's Psychoactive Drug Screen Program Selectivity Panel) EUB0001125a CHRM1
[10] = target: Alpha-1A adrenergic receptor (Homo sapiens, UniProt P35348); assay: Selectivity interaction (US National Institute of Mental Health's Psychoactive Drug Screen Program Selectivity Panel) EUB0001125a ADRA1A
[11] = target: Muscarinic acetylcholine receptor M4 (Homo sapiens, UniProt P08173); assay: Selectivity interaction (US National Institute of Mental Health's Psychoactive Drug Screen Program Selectivity Panel) EUB0001125a CHRM4
[12] = target: Alpha-2C adrenergic receptor (Homo sapiens, UniProt P18825); assay: Selectivity interaction (US National Institute of Mental Health's Psychoactive Drug Screen Program Selectivity Panel) EUB0001125a ADRA2C
[13] = target: Alpha-1B adrenergic receptor (Homo sapiens) (UniProt P35368); assay: Selectivity interaction (Ricerca selectivity panel) EUB0001125a ADRA1B; conditions: at 1 µM
[14] = target: Alpha-1A adrenergic receptor (Homo sapiens) (UniProt P35348); assay: Selectivity interaction (Ricerca selectivity panel) EUB0001125a ADRA1A; conditions: at 1 µM
[15] = target: Muscarinic acetylcholine receptor M2 (Homo sapiens) (UniProt P08172); assay: Selectivity interaction (Ricerca selectivity panel) EUB0001125a CHRM2; conditions: at 1 µM
[16] = target: Muscarinic acetylcholine receptor M2 (Homo sapiens, UniProt P08172); assay: Selectivity interaction (US National Institute of Mental Health's Psychoactive Drug Screen Program Selectivity Panel) EUB0001125a CHRM2
[17] = target: 5-hydroxytryptamine receptor 2A (Homo sapiens, UniProt P28223); assay: Selectivity interaction (US National Institute of Mental Health's Psychoactive Drug Screen Program Selectivity Panel) EUB0001125a HTR2A
[18] = target: Chromodomain Y-like protein 2 (Homo sapiens, UniProt Q8N8U2); assay: Selectivity interaction (SPR) EUB0001090a CDYL2
[19] = target: T4, Chromobox protein homolog 2 (Homo sapiens, UniProt Q14781); assay: Selectivity interaction (SPR) EUB0001090a CBX2
T4 sequence (Q14781 whole entry): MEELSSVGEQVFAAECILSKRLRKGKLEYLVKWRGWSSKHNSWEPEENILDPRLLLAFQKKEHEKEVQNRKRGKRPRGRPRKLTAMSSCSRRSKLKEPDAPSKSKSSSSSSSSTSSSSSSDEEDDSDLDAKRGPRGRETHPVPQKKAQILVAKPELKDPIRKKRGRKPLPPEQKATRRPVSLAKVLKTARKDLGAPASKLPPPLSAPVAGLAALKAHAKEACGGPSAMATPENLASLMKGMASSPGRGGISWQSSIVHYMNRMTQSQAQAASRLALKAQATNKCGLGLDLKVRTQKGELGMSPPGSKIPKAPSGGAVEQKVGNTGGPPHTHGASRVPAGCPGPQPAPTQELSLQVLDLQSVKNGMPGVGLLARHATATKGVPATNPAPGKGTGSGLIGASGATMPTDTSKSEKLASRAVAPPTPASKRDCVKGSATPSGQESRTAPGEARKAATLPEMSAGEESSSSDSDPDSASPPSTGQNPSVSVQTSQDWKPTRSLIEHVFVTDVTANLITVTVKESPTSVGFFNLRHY

[20] = target: Chromobox protein homolog 8 (Homo sapiens, UniProt Q9HC52); assay: Selectivity interaction (SPR) EUB0001090a CBX8
[21] = target: E3 SUMO-protein ligase CBX4 (Homo sapiens, UniProt O00257); assay: Selectivity interaction (SPR) EUB0001090a CBX4
Sequence of E3 SUMO-protein ligase CBX4 (O00257 whole entry): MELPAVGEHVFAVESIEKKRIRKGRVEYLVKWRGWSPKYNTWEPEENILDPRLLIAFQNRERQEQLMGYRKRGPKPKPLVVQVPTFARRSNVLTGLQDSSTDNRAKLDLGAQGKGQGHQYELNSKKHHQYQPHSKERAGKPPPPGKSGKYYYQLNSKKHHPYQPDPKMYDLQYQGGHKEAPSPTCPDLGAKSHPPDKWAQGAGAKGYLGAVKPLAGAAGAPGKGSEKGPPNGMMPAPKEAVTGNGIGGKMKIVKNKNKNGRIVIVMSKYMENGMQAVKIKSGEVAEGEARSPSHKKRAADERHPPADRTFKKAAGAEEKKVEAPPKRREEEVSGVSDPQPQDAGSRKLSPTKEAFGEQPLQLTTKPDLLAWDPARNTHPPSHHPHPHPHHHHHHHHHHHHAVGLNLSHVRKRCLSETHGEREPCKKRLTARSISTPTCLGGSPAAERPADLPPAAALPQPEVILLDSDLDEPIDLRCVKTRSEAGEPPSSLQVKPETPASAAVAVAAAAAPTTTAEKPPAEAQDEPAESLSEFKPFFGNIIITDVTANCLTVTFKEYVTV

[22] = target: Chromobox protein homolog 6 (Homo sapiens, UniProt O95503); assay: Selectivity interaction (SPR) EUB0001090a CBX6
Sequence of Chromobox protein homolog 6 (O95503 whole entry): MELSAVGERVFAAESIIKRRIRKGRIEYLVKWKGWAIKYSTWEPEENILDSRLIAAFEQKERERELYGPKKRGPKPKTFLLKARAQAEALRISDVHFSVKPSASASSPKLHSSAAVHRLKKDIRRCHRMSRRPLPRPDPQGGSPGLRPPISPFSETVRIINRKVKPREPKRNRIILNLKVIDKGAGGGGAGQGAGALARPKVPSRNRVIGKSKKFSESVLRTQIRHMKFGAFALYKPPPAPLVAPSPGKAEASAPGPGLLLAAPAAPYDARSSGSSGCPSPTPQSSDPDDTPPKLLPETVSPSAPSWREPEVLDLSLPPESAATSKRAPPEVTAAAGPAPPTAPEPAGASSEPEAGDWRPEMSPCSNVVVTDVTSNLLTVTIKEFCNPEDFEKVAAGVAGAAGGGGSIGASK

Structure (SMILES): Cc1nc(F)ccc1-c1cc(Cn2ccn(C)c2=N)cc(C(=O)NCc2ccc(Cl)c(Cl)c2)c1
- IC50 [1]: 19.9 nM
- IC50 [2]: 19.9 nM

Structure (SMILES): NC(=O)c1cccc(NC(=O)CCC(=O)NCCc2cn(CCNS(=O)(=O)c3cccc(C(=O)O)c3)nn2)c1
- IC50 [3]: 9040 nM
- IC50 [4]: 11700 nM

Structure (SMILES): CC[C@H](C)[C@H](NC(C)=O)C(=O)N[C@@H](CCC(=O)O)C(=O)N[C@H](C(=O)N[C@H](C=O)CC(=O)O)[C@@H](C)O (Ac-IETD-aldehyde)
- IC50 [5]: 35 nM

Structure (SMILES): COC(=O)CC[C@H](NC(=O)[C@H](Cc1c[nH]c2ccccc12)NC(=O)OCc1ccccc1)C(=O)N[C@@H](Cc1cnc[nH]1)C(=O)N[C@@H](CC(=O)OC)C(=O)CF (Cbz-WE(OMe)HD(OMe)-CH2F)
- IC50 [6]: 580 nM
- IC50 [7]: 240 nM
- IC50 [8]: 220 nM

Structure (SMILES): COc1cc2c(NC3CCN(C(C)C)CC3)nc(C3CCCCC3)nc2cc1OCCCN1CCCC1
- Ki [9]: 370 nM
- Ki [10]: 500 nM
- Ki [11]: 510 nM
- Ki [12]: 400 nM
- Inhibition of control [13]: 69%
- Inhibition of control [14]: 90%
- Inhibition of control [15]: 64%
- Ki [16]: 510 nM
- Ki [17]: 1200 nM

Structure (SMILES): COC(=O)[C@H](CO)NC(=O)[C@H](CCCCN(C)C1CC2CCC1C2)NC(=O)[C@H](CC(C)C)NC(=O)[C@H](C)NC(=O)[C@H](Cc1ccccc1)NC(=O)c1ccc(C(C)(C)C)cc1 (some centres not stated) ({Benzoyl(4-tBu)}-FAL[Lys(Me,2-norbornyl)]S-OMe)
- Kd [18]: 415 nM
- Kd [19]: 1750 nM
- Kd [20]: 458 nM
- Kd [21]: 26.7 nM
- Kd [22]: 543 nM
